From patent publication US20040242694A1, “Remedial agent for cardiac failure” (priority 2001, published 2004)

Legend:
[1] = system: animal test mode of ventricular failure; conditions: J Pharmacol Exp Ther 291(2) 799-811 (1999); Circ Res 85(4) 364-376 (1999); cited from earlier work
[2] = system: Dahl's salt-sensitive rat; assay: P-V curve of removed hearts under perfuse by Langendorff's method; type: ex vivo; conditions: compared with the control group; Langendorff perfusion
Experimental: In the above model of cardiac failure using Dahl's salt-sensitive rat, internal pressure and volume of left ventricle of hearts removed from 11, 15, and 17 weeks rats were measured under perfuse by Langendorff's method.

mice = assay: Toxicity, oral administration to mice; type: in vivo
Experimental: It was considered that the toxicities of the compounds in the present invention could be very low and safe to use as a medicine. For example, the lowest lethal dose in oral administration of compound (II) to mice was 2000 mg/kg.

Row | Compound | effect on animal test model of ventricular failure [1] | P-V curve (internal pressure and volume of left ventricle) [2] | lowest lethal dose (mice) [mg/kg]
1 | CC(C)[C@H](NS(=O)(=O)c1ccc(-c2ccc(Br)cc2)cc1)C(=O)O [PD166793] | effective | – | –
2 | CCOCOC[C@H](C[C@H](C)C(=O)NO)NC(=O)c1ccc(Oc2ccccc2)cc1 [compound (II), N-hydroxy-5-ethoxymethyloxy-2(S)-methyl-4(S)-(4-phenoxybenzoyl)aminopentanamide] | – | shifts to the left side | 2000
